No end group written: not given here.
Legend:
BV2 microglia cells = assay: In vitro phagocytosis of Aβ1-42 in BV2 cells, Western blot; format: cell-based, mouse; details: Example 16; 5 μg/mL cytochalasin D
Procedure: For total Aβ detection, 10-30 μg of cell extracts were separated on a precast 10-20% SDS polyacrylamide Tris-Tricine gel (Bio-Rad, Canada). Separated proteins were then transferred onto polyvinylidene fluoride (PVDF) membranes (PerkinElmer, Canada). Membrane were incubated in DPBS (Gibco, USA) at 90° C. for 10 min. Membrane were then incubated for 1 hour in blocking solution, which consist in TBS-T (50 mM Tris-HCl pH 8.0; 150 mM NaCl; 0.05% Tween 20) supplemented with 1% BSA (Sigma, Canada) and 5% non-fat dry milk, and probed for 16 hours at 4° C. with a mouse anti-amyloid beta protein monoclonal antibody clone 6E10 (Covance, USA) diluted to 1:1000 in TBS-T supplemented with 5% BSA and 0.02% sodium azide. Membranes were washed once for 15 min and three times for 5 min in TBS-T at room temperature. […] Films were digitalized using a HP Scanjet 4370 (HP) and signal intensity was measured using ImageJ (version 1.44p, NIH).
Aβ specific antibodies stimulate the uptake of soluble Aβ1-42 toxic peptides in an actin polymerization-dependent mechanism. […] Cells were incubated for the indicated period of time, resuspended by trypsinization, collected, solubilised in lysis buffer and further analyzed by immunoblotting. […]

TASTPM mice = assay: Survival rate of TASTPM mouse model; format: in vivo; details: Example 26; weekly injections; followed for 112 days
Description: The usage of the TLR2 agonist, i.e. Pam3CysLip Aβ1-6 peptide, improves the survival rate of TASTPM mouse model. 23 out of 25 mice survived after weekly injections of Pam3CysLip Aβ1-6 peptide compared to PBS injected animals in which only 13 out 25 TASTPM mice survived (followed for 112 days).

Aβ42 = assay: Anti Aβ42 specific immunogenicity in TASTPM mice; format: in vivo; details: Example 24; 12 injections of 10 ug, intramuscular
Procedure: Whole blood is collected from mice and centrifuged on a vacutainer blood collection tube containing gel for serum separation. Serum samples are stored at −80° C. Streptavidin-coated plates (Greiner Bio-One, Germany) are first coated with beta-amyloid (1-42)-Lys(Biotin)-NH2 peptide (Anaspec, Inc.) at 0.5 μg/mL, using 50 mM sodium carbonate buffer, overnight at 4° C. Plates are then washed using a 4 times using PBS/0.05% Tween 20. Super Block (ScyTek laboratories) is added to the plates and incubated at 37° C. for at least one hour. Serum samples and standard (anti Aβ42 antibody (6E10 antibody, Covance, Inc.) are serially diluted in the plates and incubated at 37° C. for 2 hours. After a wash step, diluted peroxidase AffiniPure goat anti-mouse IgG, Fcγ fragment specific (Jackson ImmunoResearch Laboratories Inc.) is added for 1 hour at 37° C. A last wash is performed before adding TMB substrate reagent (BD OptEIA™, BD Biosciences) for 30 min at RT. Immediately, plates are stopped using 2N sulfuric acid, and then read at 450 nm using SpectraMax microplate reader (Molecular Devices, Inc.).
High and specific anti Aβ42 specific immunogenicity is promoted by a TLR2 containing adjuvant fused to the first six amino acid of Aβ in the amyloid deposition mouse model (TASTPM) following 12 injections of 10 ug of the Pam3Cys—SQ EPAAPAAEAT PAAEAP DAEFRH (SEQ ID NO:9) using the intramuscular route.

working memory = assay: T-water maze in TASTPM mice; format: in vivo; details: Example 25; 12 weekly i.m. injections; vs PBS
Procedure: Mice were tested during the “light on” phase of the day. Behavioral experimenter was blinded to the genetic and treatment status of animals. To assess hippocampal-dependent spatial learning and memory, mice were trained in the T-water maze task. In this paradigm, we evaluate the mouse's ability to remember the spatial location of submerged platform. The T-maze apparatus (length of stem, 64 cm; length of arms, 30 cm; width, 12 cm; height of walls, 16 cm) was made of clear fiberglass and filled with water (23±1° C.) at a height of 12 cm. A platform (11×11 cm) was placed at the end of the target arm and was submerged 1 cm below the surface. The acquisition phase allows to evaluate animals for left-right spatial learning. During the first two trials, platforms were placed on each arms of the maze to test the spontaneous turning preference of the mouse. After these two trials, the least chosen arm was reinforced by the escape platform. […] The number of trials to reach the criterion (five of five correct choices made on consecutive trials) was measured as well as the latency to find the escape platform.
To determine whether a TLR2 agonist will improve the cognitive impairment in TASTPM mice, the Pam3CysLip adjuvant fused to the Aβ1-6 peptide was injected 12 times at weekly basis using the intramuscular route and the memory was assessed using the T-water maze test. […]

AD-like neuropathologies = details: Schenk D. et al, 1999; cited from earlier work

With C=C1[C@@H](C)[C@H]2[C@H](Cc3ccccc3)NC(=O)[C@]23[C@H](OC(C)=O)/C=C/[C@@](C)(O)C(=O)[C@@H](C)C/C=C/[C@H]3[C@@H]1O [cytochalasin D] the “effect on 2E7-increased cellular uptake of Aβ1-42” value (BV2 microglia cells) was “inhibited”.

For “Pam3Cys—SQ EPAAPAAEAT PAAEAPDAEFRH (Pam3Cys-SQEPAAPAAEATPAAEAPDAEFRH) [Pam3CysLip Aβ1-6]”, the mice survived (TASTPM mice) was 23 out of 25, the Aβ42 specific immunogenicity (Aβ42) was “High Aβ42 specific Immunogenicity” and the “right-left discrimination tests, T-water maze” value (working memory) was “trend of improvement”.

For “synthetic human Aβ1-42: synthetic human Aβ1-42 used to immunize PDAPP mice”, the AD-like neuropathologies (AD-like neuropathologies) is listed as “reduce the extent and progression of AD-like neuropathologies”.

Source: patent publication US20140294849A1, “COMPOSITIONS AND USES” (GLAXOSMITHKLINE BIOLOGICALS SA, priority 2011, published 2014)
